Converted amounts (≈) assume the structure as drawn.
Tests used:
[1] = test system: Staphylococcus aureus; assay: Growth inhibition of Staphylococcus aureus ATCC 29213 at 860 uM after 16 hrs by broth microdilution method; type: functional; conditions: ATCC 29213, 16 h, read-out: GI
[2] = test system: Staphylococcus aureus; assay: Growth inhibition of Staphylococcus aureus ATCC 29213 at 1230 uM after 16 hrs by broth microdilution method; type: functional; conditions: ATCC 29213, 16 h, read-out: GI
[3] = test system: Staphylococcus aureus; assay: Growth inhibition of Staphylococcus aureus ATCC 29213 at 1000 uM after 16 hrs by broth microdilution method; type: functional; conditions: ATCC 29213, 16 h, read-out: GI
[4] = test system: Staphylococcus aureus; assay: Growth inhibition of Staphylococcus aureus ATCC 29213 at 820 uM after 16 hrs by broth microdilution method; type: functional; conditions: ATCC 29213, 16 h, read-out: GI
[5] = test system: Staphylococcus aureus; assay: Growth inhibition of Staphylococcus aureus ATCC 29213 at 1540 uM after 16 hrs by broth microdilution method; type: functional; conditions: ATCC 29213, 16 h, read-out: GI
[6] = biological target: T1, Type III pantothenate kinase (Bacillus anthracis, UniProt Q81VX4); assay: Inhibition of Bacillus anthracis pantothenate kinase 3
T1 sequence (Q81VX4 whole entry): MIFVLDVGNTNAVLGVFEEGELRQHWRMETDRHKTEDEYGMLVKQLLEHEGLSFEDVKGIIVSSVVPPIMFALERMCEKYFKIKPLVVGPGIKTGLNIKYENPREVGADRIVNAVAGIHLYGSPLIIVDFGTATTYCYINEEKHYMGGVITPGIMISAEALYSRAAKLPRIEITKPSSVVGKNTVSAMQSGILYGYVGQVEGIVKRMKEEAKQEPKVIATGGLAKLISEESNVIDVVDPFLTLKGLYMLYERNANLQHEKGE

[7] = test system: Staphylococcus aureus; assay: Growth inhibition of Staphylococcus aureus ATCC 29213 at 550 uM after 16 hrs by broth microdilution method; type: functional; conditions: ATCC 29213, 16 h, read-out: GI
[8] = test system: Staphylococcus aureus; assay: Antibacterial activity against Staphylococcus aureus ATCC 29213 after 16 hrs by broth microdilution method; type: functional; conditions: ATCC 29213, 16 h

With `CCCCCn1cc(CNC(=O)[C@H](O)C(C)(C)CO)nn1` the inhibition of growth at 860 µM [1] was -5%.

`CCCc1cn(CCCNC(=O)[C@H](O)C(C)(C)CO)nn1` was tested, and the inhibition of growth at 860 µM [1] was -13%.

`O=C(O)CCNC(=O)[C@H](O)CCO` gave an inhibition of growth at 1230 µM [2] of 9%.

`COC(=O)CNC(=O)[C@H](O)C(C)(C)CO` showed an inhibition of growth at 1000 µM [3] of 84%.

Work on `CCCCCc1cn(CCNC(=O)[C@H](O)C(C)(C)CO)nn1` yielded an inhibition of growth at 820 µM [4] of 72%.

For `COC(=O)CCCNC(=O)[C@H](O)C(C)(C)CO`, the inhibition of growth at 1000 µM [3] was 16%.

In the case of `COC(=O)CCNC(=O)[C@H](O)C(C)(C)CO`, the inhibition of growth at 1000 µM [3] is reported as 15%.

`CC(C)(CO)[C@@H](O)C(=O)NCc1cn(CCc2ccccc2)nn1` was tested, and the inhibition of growth at 1540 µM [5] was 2%.

`CC(C)(CO)[C@@H](O)C(=O)NCC(=O)O` was tested, and the inhibition of growth at 1000 µM [3] was 18%.

`CCCCCn1cc(CCNC(=O)[C@H](O)C(C)(C)CO)nn1` was tested, and the inhibition of growth at 860 µM [1] was 99%.

With `Nc1ncnc2c1ncn2[C@@H]1O[C@H](Cn2cc(CO[C@@H]3O[C@H](CO)[C@H](O)[C@H](O)[C@H]3O)nn2)[C@@H](O)[C@H]1O` the Ki [6] was 164 µM.

For `CCCCn1cc(CCNC(=O)[C@H](O)C(C)(C)CO)nn1`, the inhibition of growth at 550 µM [7] was 86%.

`CCCCCNC(=O)CCNC(=O)[C@H](O)C(C)(C)CO` showed an MIC [8] of 14 µM (≈ 4.04 µg/mL).

`CC(C)(CO)[C@@H](O)C(=O)NCCCC(=O)O` [HOPANTENIC ACID] gave an inhibition of growth at 1000 µM [3] of 87%.

— ChEMBL document CHEMBL4261651, “Probing the ligand preferences of the three types of bacterial pantothenate kinase” (Bioorg Med Chem, 2018)
